Results: patent publication US10292394B2, “Herbicidal compounds” (Syngenta Participations AG, priority 2015, dated 2019)

What was measured:
Assay in all cases: Post-emergence efficacy, glasshouse pot test
Assay type in all cases: in vivo
Settings in all cases: post-emergence application, evaluated after 13 days
[1] = test system: Amaranthus retoflexus (AMARE)
Description: (§1) B1 Post-Emergence Efficacy Seeds of a variety of test species are sown in standard soil in pots:—Solanum nigrum (SOLNI), Amaranthus retoflexus (AMARE), Setaria faberi (SETFA), Alopecurus myosuroides (ALOMY), Echinochloa crus-galli (ECHCG), Ipomoea hederacea (IPOHE), Lolium perenne (LOLPE). After 8 days cultivation (post-emergence) under controlled conditions in a glasshouse (at 24/16° C., day/night; 14 hours light; 65% humidity), the plants are sprayed with an aqueous spray solution derived from the formulation of the technical active ingredient in acetone/water (50:50) solution containing 0.5% Tween 20 (polyoxyethylene sorbitan monolaurate, CAS RN 9005-64-5). Compounds are applied at 1000 g/ha and 250 g/ha. The test plants are then grown in a glasshouse under controlled conditions in a glasshouse (at 24/16° C., day/night; 14 hours light; 65% humidity) and watered twice daily. After 13 days, the test is evaluated for the percentage damage caused to the plant. The biological activities are assessed on a five point scale (5=80-100%; 4=60-79%; 3=40-59%; 2=20-39%; 1=0-19%).

[2] = test system: Echinochloa crus-galli (ECHCG)
Description: as §1

[3] = test system: Ipomoea hederacea (IPOHE)
Description: as §1

Lolium perenne (LOLPE) = test system: Lolium perenne (LOLPE)
Description: as §1

Setaria faberi (SETFA) = test system: Setaria faberi (SETFA)
Description: as §1

Solanum nigrum (SOLNI) = test system: Solanum nigrum (SOLNI)
Description: as §1

| Compound | percentage damage caused to the plant, five point scale, AMARE ([1]; 250 g/ha) | percentage damage caused to the plant, five point scale, AMARE ([1]; 1000 g/ha) | percentage damage caused to the plant, five point scale, ECHCG ([2]; 250 g/ha) | percentage damage caused to the plant, five point scale, ECHCG ([2]; 1000 g/ha) | percentage damage caused to the plant, five point scale, IPOHE ([3]; 250 g/ha) | percentage damage caused to the plant, five point scale, IPOHE ([3]; 1000 g/ha) | percentage damage caused to the plant, five point scale, LOLPE (Lolium perenne (LOLPE); 250 g/ha) | percentage damage caused to the plant, five point scale, LOLPE (Lolium perenne (LOLPE); 1000 g/ha) | percentage damage caused to the plant, five point scale, SETFA (Setaria faberi (SETFA); 250 g/ha) | percentage damage caused to the plant, five point scale, SETFA (Setaria faberi (SETFA); 1000 g/ha) | percentage damage caused to the plant, five point scale, SOLNI (Solanum nigrum (SOLNI); 250 g/ha) | percentage damage caused to the plant, five point scale, SOLNI (Solanum nigrum (SOLNI); 1000 g/ha) |
| --- | --- | --- | --- | --- | --- | --- | --- | --- | --- | --- | --- | --- |
| O=c1c(-c2c(Cl)ccc(Cl)c2OCc2cnc(Cl)s2)c(O)c2cccnc2n1CC(F)F [Compound 3.19] | 5 (5=80-100%) | 5 (5=80-100%) | 3 (3=40-59%) | 4 (4=60-79%) | 5 (5=80-100%) | 5 (5=80-100%) | 4 (4=60-79%) | 5 (5=80-100%) | 4 (4=60-79%) | 5 (5=80-100%) | 5 (5=80-100%) | 5 (5=80-100%) |
| O=c1c(-c2c(Cl)ccc(Cl)c2OCc2cnc(Cl)s2)c(O)c2nccnc2n1CC(F)F [Compound 11.19] | 5 (5=80-100%) | 5 (5=80-100%) | 5 (5=80-100%) | 4 (4=60-79%) | 5 (5=80-100%) | 5 (5=80-100%) | 5 (5=80-100%) | 5 (5=80-100%) | 4 (4=60-79%) | 5 (5=80-100%) | 5 (5=80-100%) | 5 (5=80-100%) |
| COc1ccnc2c1c(O)c(-c1c(Cl)ccc(Cl)c1OCc1cnc(Cl)s1)c(=O)n2CC(F)F [Compound 19.19] | 5 (5=80-100%) | 5 (5=80-100%) | 5 (5=80-100%) | 5 (5=80-100%) | 5 (5=80-100%) | 5 (5=80-100%) | 4 (4=60-79%) | 5 (5=80-100%) | 5 (5=80-100%) | 5 (5=80-100%) | 5 (5=80-100%) | 5 (5=80-100%) |
| C#CCn1c(=O)c(-c2c(Cl)ccc(Cl)c2OCc2cnc(Cl)s2)c(O)c2nccnc21 [Compound 9.19, 7-[3,6-dichloro-2-[(2-chlorothiazol-5-yl)methoxy]phenyl]-8-hydroxy-5-prop-2-ynyl-pyrido[2,3-b]pyrazin-6-one] | 5 (5=80-100%) | 5 (5=80-100%) | 5 (5=80-100%) | 5 (5=80-100%) | 5 (5=80-100%) | 5 (5=80-100%) | 5 (5=80-100%) | 5 (5=80-100%) | 5 (5=80-100%) | 5 (5=80-100%) | 5 (5=80-100%) | 5 (5=80-100%) |
| C#CCn1c(=O)c(-c2c(Cl)ccc(Cl)c2OCc2cnc(Cl)s2)c(O)c2c(OC)ccnc21 [Compound 17.19] | 5 (5=80-100%) | 5 (5=80-100%) | 5 (5=80-100%) | 5 (5=80-100%) | 5 (5=80-100%) | 5 (5=80-100%) | 4 (4=60-79%) | 5 (5=80-100%) | 5 (5=80-100%) | 5 (5=80-100%) | 5 (5=80-100%) | 5 (5=80-100%) |
| C#CCn1c(=O)c(-c2c(Cl)ccc(Cl)c2OCc2cnc(Cl)s2)c(O)c2cccnc21 [Compound 1.19] | 4 (4=60-79%) | 5 (5=80-100%) | 3 (3=40-59%) | 5 (5=80-100%) | 5 (5=80-100%) | 5 (5=80-100%) | 5 (5=80-100%) | 5 (5=80-100%) | 4 (4=60-79%) | 5 (5=80-100%) | 5 (5=80-100%) | 5 (5=80-100%) |
